According to patent US11806343B2, “Inhibitors of DUX4 induction for regulation of muscle function” (Sonic Master Limited, priority 2017, dated 2023):

Legend:
DUX4 target genes = assay: Nanostring panel transcript analysis, DUX4 target genes; format: cell-based, human; conditions: 17MB026 primary myotubes, six-point dose curve 30 nM-3 μM, 3 days
Procedure: 17MB026 primary FSHD-affected patient myoblasts (obtained from the University of Rochester FSHD Biorepository) were thawed and cultured as described in Rickard et al., 2015 in primary myoblast medium. Cells (4000 per well) were seeded to a collagen-I coated 96-well plate in 100 μL primary myoblast medium. Medium was changed every other day until cells reached 80% confluence followed by a switch to 100 μL per well primary myotube medium. […] Cells were lysed after 3 days of myotube formation using 10 μL of iScript Buffer (Biorad) per well. The resulting lysates were frozen at −30° C. After thaw, 5 μL of each lysate was combined with a custom-designed Nanostring transcript probe and capture codeset. Probes were hybridized to lysates and run cartridge was loaded and run per standard protocol. Normalization and background subtraction were performed using the nSolver 3.0 software using standard conditions DUX4 target gene and myotube marker gene expression values were normalized to a standard set of housekeeping genes. Duplicate wells of each condition were averaged.

[1] = tested on: 17MB026 primary FSHD-affected patient myotubes; assay: Live cell imaging of % cell confluence through myotube formation; format: cell-based, human; conditions: 17MB026 primary myotubes, six concentrations, four days of myotube formation
Procedure: 17MB026 primary FSHD-affected patient myoblasts (obtained from the University of Rochester FSHD Biorepository) were thawed and cultured as described in Rickard et al., 2015 in primary myoblast medium. Cells (4000 per well) were seeded to a collagen-I coated 96-well plate in 100 μL primary myoblast medium. Medium was changed every other day until cells reached 80% confluence followed by a switch to 100 μL per well primary myotube medium. […] Cells were imaged in the phase contrast channel every six hours for four days and cell confluence in each image was quantified, Triplicate wells of each condition were averaged.

CNC(=O)c1cc(Oc2ccc(NC(=O)Nc3cc(C(C)(C)C)nn3-c3ccc4ncccc4c3)c(F)c2)ccn1 [GBC0905, Rebastinib]
expression of DUX4-activated genes (DUX4 target genes): dose-dependent decrease of 11 DUX4-activated genes | FSHD cell death measured by retained % cell confluence [1]: dose-dependent rescue of FSHD cell death
